Values after ≈ are worked out from the molar mass of the structure shown.

This is an account of results in publication PMC8911025, “Design, Synthesis, and Biological Evaluation of New Azulene-Containing Chalcones” (Materials, 2022).

What all share (type): cell-based
Series [1] has as its system Pseudomonas aeruginosa. The experiment in a line: Antibiofilm activity (crystal violet, A490). The following applies: biofilm, read-out: MBEC. How it is done:
(§1) The effect of the chalcones on the biofilm formation was evaluated after the determination of the MICs. Briefly, the plates were emptied, washed to remove the nonadherent cells, fixed with methanol, and stained with crystal violet. The antibiofilm activity was determined after adding 33% acetic acid solution by measuring the absorbance at 490 nm, and the results are listed in Table 6.
(§2) The azulene-chalcone derivatives were tested for their ability to affect biofilm formation since 80% of the world’s microbial biomass is found in the biofilm state. The most efficient compound was again chalcone 6 with MBEC of 0.156–0.625 mg/mL (Table 6).

Series [2] deals with Staphylococcus aureus. The experiment in a line: Antibiofilm activity (crystal violet, A490). The following applies: biofilm, read-out: MBEC. How it is done:
as §1, §2

The subject of series [3] is Escherichia coli. Nature of the series: Antibiofilm activity (crystal violet, A490). The following applies: biofilm, read-out: MBEC. How it is done:
as §1, §2

The test system of series [4] is Candida parapsilosis. Nature of the series: Antibiofilm activity (crystal violet, A490). To be noted: Lodderomyces parapsilosis, biofilm, read-out: MBEC. How it is done: as §1, §2
Series [5] deals with Staphylococcus aureus ATCC 25923. Nature of the series: MIC, binary serial dilution in 96-well plates. The following applies: for MIC: ATCC25923, Staphylococcus aureus ATCC 25923, 24 h at 37 °C; for Aexp: Aexp = 0.1 + log (k/MIC), k = 1.250, compounds synthesized herein. How it is done: (§3) The antimicrobial activity of all compounds was assessed on Gram-positive bacteria (Staphylococcus aureus ATCC 25923), Gram-negative bacteria (Escherichia coli ATCC 25922, Pseudomonas aeruginosa ATCC 27853), and fungi (Candida parapsilosis ATCC 22019) using quantitative binary serial dilution method in 96-well plates. The negative control was represented by wells with culture medium, while positive control was the microbial strain in broth. Briefly, binary serial dilutions of the compounds performed in 100 μL of broth were seeded with microbial inoculum of 10^6 colony forming units (CFU)/mL and incubated for 24 h at 37 °C. […] Due to the fact that the obtained compounds were colored, after the incubation of the 96-well plates, from each well, 10 µL were seeded on agar plates (Plate Count Agar) to determine the inhibitory concentration. The same value of the inhibitory concentration was obtained in repeated experiments.
(§4) The antibacterial effect of the azulene moiety introduced in the chalcone structure was investigated against Gram-positive (Staphylococcus aureus ATCC 25923) and Gram-negative (Escherichia coli ATCC 25922, Pseudomonas aeruginosa ATCC 27853) bacteria, while the antifungal effect was tested against Candida parapsilosis ATCC 22019. To our knowledge, the antibacterial activity of azulene-containing chalcone compounds has not been reported previously; moreover, this is the first investigation of the biological properties of azulene-containing chalcones in general. The results expressed in terms of minimum inhibitory concentration (MIC) were determined by in vitro screening of the antimicrobial properties using the broth microdilution method and are summarized in Table 5.

Series [6] relates to Escherichia coli ATCC 25922. The experiment in a line: MIC, binary serial dilution in 96-well plates. To be noted: ATCC25922; Escherichia coli ATCC 25922, 24 h at 37 °C. How it is done: as §3, §4
In series [7] the test system is Pseudomonas aeruginosa ATCC 27853. The experiment in a line: MIC, binary serial dilution in 96-well plates. To be noted: ATCC27853; Pseudomonas aeruginosa ATCC 27853, 24 h at 37 °C. How it is done:
as §3, §4

For series [8], the system named is caspase 8. Nature of the series: Gene expression quantification (qPCR). To be noted: HEp-2, 100 µg/mL, 24 h. How it is done:
(§5) The mechanism of azulene-containing chalcone toxicity was assessed by gene expression evaluation. HEp-2 cells were seeded in 6-well plates at a concentration of 3 × 10^5 cells/wells in DMEM:F12 supplemented with 10% FBS. The cells were treated with azulene-containing chalcone at a concentration of 100 µg/mL. After 24 h, the cells were harvested and centrifuged, and the pellet was subjected to total RNA extraction using Trizol reagent (Sigma, St. Louis, MO, USA). The cDNA was produced using 2 µg total RNA and High Capacity Reverse Transcription Kit (Thermo Fisher Scientific, Chelmsford, MA, USA). Fifty nanograms of cDNA was subjected to PCR reaction using Maxima SYBR Green/ROX qPCR Master Mix (Thermo Fisher Scientific, Chelmsford, MA, USA) and Origene primer pairs: caspase 3 (CAT#: HP207674) caspase 7 (CAT#: HP233752), caspase 8 (CAT#: HP234494), caspase 9 (CAT#: HP205155), caspase 10 (CAT#: HP228052). For NOX-4 and NOS2, the following primers were used: NOX 4 forward 5′-[…]-3 and reverse 5′-[…]-3′ and NOS2 forward 5′-[…]-3′ and reverse 5′-[…]-3′. Amplification was completed using StepOne Real-Time PCR System (Thermo Fisher Scientific, Chelmsford, MA, USA). The relative changes in the levels of mRNA expression were quantified by using the 2^−ΔΔCT method.
(§6) Production of procaspase 8 mRNA was inhibited by 7, 9, and 10, with an important role in extrinsic apoptosis induction remaining for caspase 10. Cellular stress induces intrinsic apoptosis by caspase 9 activation that stimulates the caspase cascade, culminating in activation of executioner caspases 3 and 7 [42]. The mRNA expression of caspase 9 was activated following the treatment with 100 µg/mL of compounds 1–8 but inhibited by 9 and 10.

Series [9] has as its system Candida parapsilosis ATCC 22019. Nature of the series: MIC (antifungal), binary serial dilution in 96-well plates. The following applies: Lodderomyces parapsilosis, ATCC22019; Candida parapsilosis ATCC 22019, 24 h at 37 °C. How it is done: as §3, §4
We further tested the azulene-containing chalcone compounds for antifungal activity against Candida parapsilosis ATCC 22019.

Series [10] can be described thus: Cell viability assay (CellTiter Glo). To be noted: human; HEp-2 cells, 48 h, CellTiter Glo; read-out: IC50 (50% cytotoxic concentration). How it is done: To assess the toxicity of the azulene-containing chalcones, the adherent cell line HEp-2 (American Cell Type Collection [ATCC] CCL-23^TM) was used.
In order to estimate the cytotoxicity of the compounds, HEp-2 cells (American Cell Type Collection (ATCC) CCL-23) were exposed to the azulene-containing chalcones at concentrations of 200, 100, 50, and 25 μg/mL and evaluated using CellTiter Glo kit (Promega, Madison, WI, USA) assay. The results presented in Figure 3 are expressed as viability percentages versus control.
For orientation: In ATP-based viability assays light output follows the ATP content of the culture.

Series [11] concerns NOX4. Nature of the series: Gene expression quantification (qPCR). The following applies: HEp-2, 100 µg/mL, 24 h. How it is done: as §5
(§7) One of our approaches consisted of the analysis of NOS2 and NOX4 gene expression (Figure 6). […]
(In general: In qPCR the cycle at which signal appears reflects the starting amount.)

For series [12], the system named is caspase 3. Nature of the series: Gene expression quantification (qPCR). To be noted: HEp-2, 100 µg/mL, 24 h. How it is done:
as §5
(§8) We observed that the expression of both executioner caspases, caspase 3 (Casp 3), and caspase 7 (Casp 7), was activated by azulene (Figure 5, right). The production of procaspase 3 and 7 mRNA in the case of compounds 9 and 10 was quite reduced, probably correlated with the decreased number of cells.

Series [13] relates to caspase 7. The experiment in a line: Gene expression quantification (qPCR). To be noted: HEp-2, 100 µg/mL, 24 h. How it is done:
as §5, §8

Series [14] deals with HEp-2 cells. Nature of the series: Cell cycle analysis (propidium iodide, flow cytometry). To be noted: HEp-2, 100 µg/mL. How it is done: For cell cycle analysis, a suspension of 7.5 × 10^4 HEp-2 cells was seeded for 24 h in a 1 cm^2 well in DMEM:F12 containing 10% fetal bovine serum. After recovery, the cells were treated with 50 µg/mL or 100 µg/mL azulene-containing chalcone, and 24 h later, the cells were harvested, fixed in cold ethanol overnight, and stained with RNase A/propidium iodide at a concentration of 1 mg/mL to 100 µg/mL. The events were recorded using the Beckman Coulter flow cytometer and analyzed using FlowJo 7.2.5 software.
The cytotoxicity data were also confirmed by cell cycle analysis. Among the tested compounds, chalcone 10 induced an increase in the G2/M phase starting from a concentration of 50 µg/mL (Supplementary Material Figure S2), the effect increasing slightly with the concentration of the tested compound. The increase in the G2/M phase was also observed in the case of compound 9, but at a higher concentration (100 µg/mL), but this effect was lower (Figure 4).

Series [15] relates to caspase 9. The experiment in a line: Gene expression quantification (qPCR). To be noted: HEp-2, 100 µg/mL, 24 h. How it is done: as §5, §6
The test system of series [16] is NOS2. The experiment in a line: Gene expression quantification (qPCR). To be noted: HEp-2, 100 µg/mL, 24 h. How it is done: as §5, §7

The term MIC denotes the smallest concentration in the dilution series that meets the test's criterion for growth inhibition. A lower MIC goes with greater potency. Take `O=C(/C=C/c1cc(Cl)c2cccccc1-2)c1ccc2cccccc1-2` [Compound 7, (E)-1-(Azulen-1-yl)-3-(3-chloroazulen-1-yl)prop-2-en-1-one]: the minimal effective concentration stood at 625 µg/mL in series [1], 625 µg/mL in [2], 1250 µg/mL in series [3] and 312 µg/mL in series [4]. Also, the MIC worked out at 625 µg/mL (≈ 1820 µM) in series [5], 625 µg/mL (≈ 1820 µM) in [6], 625 µg/mL (≈ 1820 µM) in series [7] and 312 µg/mL (≈ 910 µM) in [9]. Moreover, the Aexp in series [5] is 0.401. Also, in [8], the “procaspase 8 mRNA production” value was “inhibited”. Moreover, the IC50 at 48 h in series [10] was found to be 42.9 µg/mL (≈ 125 µM). In addition, the “NOX4 activation (expression)” value in series [11] was “minimal”.

As to `Cc1cc(/C=C/C(=O)c2ccc3cccccc2-3)c2cccccc1-2` [Compound 9, (E)-1-(Azulen-1-yl)-3-(3-methylazulen-1-yl)prop-2-en-1-one], the “procaspase 3 mRNA expression” value in series [12] was “quite reduced”. Moreover, the “procaspase 7 mRNA expression” value in series [13] was “quite reduced”. For the same molecule, the “effect on G2/M phase” value in series [14] is “increase”. The minimal effective concentration stood at 625 µg/mL in series [1], 625 µg/mL in [2], 625 µg/mL in series [3] and 312 µg/mL in series [4]. The MIC in series [5] was found to be 1250 µg/mL (≈ 3880 µM); in series [6], 625 µg/mL (≈ 1940 µM); in series [7], 625 µg/mL (≈ 1940 µM); in series [9], 312 µg/mL (≈ 968 µM). Besides, the Aexp in [5] came to 0.100. For the same molecule, in series [15], the “mRNA expression of caspase 9” value is listed as “inhibited”. Further, the “procaspase 8 mRNA production” value in series [8] was “inhibited”. For the same molecule, in [10], the IC50 at 48 h came to 52.5 µg/mL (≈ 163 µM). Besides, in series [16], the NOS2 expression result is given as “reduced”.
